Assay results published in patent publication US20120065179A1, “PRODRUG COMPRISING BETA-KETO CARBOXYLIC ACID, BETA-KETO CARBOXYLIC ACID SALT OR BETA-KETO CARBOXYLIC ACID ESTER FOR DRUG DELIVERY” (YKI, Ytemiska Institutet AB, priority 2009, published 2012).
Where “and” joins values, the source holds several entries; their conditions need not be identical. Equal values may be shown once. Read-outs that look alike come from different tables or passages of the source.

Experiments:
[1] = Sustained release of Nabumetone from beta-keto sodium salt prodrug in phosphate buffer at blood pH and 37° C.; assay type: physicochemical; details: phosphate buffer pH about 7.4, 37° C.
Procedure: 20.91 mg of the product synthesised as described in Example 8 (however in this case not purified by the chromatographic step in Example 8) was mixed with 1 ml 0.5 M NaOH at room temperature, whereby a portion of the sample was dissolved. After 30 minutes the mixture was placed in an oven at 37° C., and 10 μl samples was taken at regular intervals, diluted with 1 ml mobile phase (as in Example 1), and analyzed by HPLC, using UV-detection at 240 nm. 3.0 hours after initiation of the saponification reaction, the precursor (retention time 4.6 min) could no longer be detected, and the precursor peak was replaced by a peak from the intermediary beta-keto salt prodrug (retention time 2.3 minutes). At this point in time, a solution of 9 ml H2O and 0.0762 g NaH2PO4 was added to the sample, in order to create a NaH2PO4/Na2HPO4 pH buffer by neutralization of the NaOH remaining in the sample. […] The sample was again placed in the oven at 37° C. and the decarboxylation of the beta-keto salt in solution, gradually giving the commercially available drug Nabumetone, was followed by HPLC by taking 100 μl samples at regular intervals and diluting them with 1 ml mobile phase (see Example 1 above) before injection on the HPLC. It can be seen from the data that Nabumetone was continuously released into the solution via the spontaneous, non-enzymatic decarboxylation of the dissolved prodrug sodium salt, over a period of more than 120 hours. The half-life of the prodrug was estimated to be about 70 hours in this medium and under the conditions used.

[2] = Aqueous solubility of sodium beta-keto salt prodrug of Nabumetone (Example 13b); assay type: physicochemical
Procedure: 12.1 mg of the of ethyl-5-(6-methoxy-2-naphthyl)-beta-keto-pentanoate product prepared and purified as in Example 8 was mixed with 25 mL of a 0.5 M aqueous solution NaOH and homogenised on a vortex mixer. […] 15 minutes after preparation of the sample, the sample was transferred to an oil bath set at 37° C. with continuous gentle magnetic stirring, and kept there for 3.5 hours. Crystalline flakes remained in the sample at the end of the 3.5 hours heat-treatment, and the sample was thereafter centrifuged and the clear liquid above the sedimented crystals was analysed by HPLC as described above.
After storage around one hour at room temperature a fraction of the sample was then filtered twice through a 0.2 μm filter (Whatman, 0.2 μm PS) fitted to a syringe to give a clear solution. 200 μL of this filtered solution was transferred, in a tightly closed vessel, to an oil bath at 95° C. and kept at this temperature for about 5 hours to bring about quantitative decarboxylation of the labile, dissolved beta-keto carboxylic salt prodrug derivative of Nabumetone.
The heated sample was then mixed with 35 mL of mobile phase (see Example 1) whereby a few solid crystals (comprising Nabumetone) was seen to not dissolve. In order to assure a correct sampling for HPLC analysis, 5 mL of the 35 mL sample was filtered through a 0.2 μm filter, after the whole 35 mL sample had been pH adjusted to 4.21 by 300 μL 0.1 M HCl+100 μL 1 M HCl, to assure that the pH of the sample was close to the pH of the mobile phase itself (pH 4.30). The filtered solution was thereafter analysed by HPLC and found to contain 0.777 mg Nabumetone per liter. If recalculated to the corresponding concentration of nabumetone equivalents in the form of the beta-keto salt prodrug present in dissolved form in the filtered 200 μl sample that was subsequently heat-treated to form Nabumetone above, the obtained concentration corresponds to a Nabumetone concentration of 136.7 mg Nabumetone per liter in the clear aqueous solution, at room temperature, before the heat-treatment at 95° C.

[3] = cited from earlier work
[4] = pig, 2 mM, pH 6.63
[5] = Sustained release of acetophenone in vitro in model blood electrolyte solution at 37° C.; assay type: physicochemical; details: formed from sodium benzoyl acetate, model blood electrolyte solution pH 7.4
Procedure: A 0.2 M solution of ethyl benzoyl acetate (90%, Sigma Aldrich) in 0.5 M NaOH (aq) was prepared at room temperature and stirred for typically 5-24 hours, still at room temperature. After this time a major part of the ethyl benzoyl acetate had been transformed into dissolved sodium benzoyl acetate, as evidenced by monitoring the reaction by analysis of samples by reversed phase HPLC. Some acetophenone and remaining ethyl benzoyl acetate were typically present in the samples, but in minor amounts. The method employed a C8 column with an inner diameter of 150×4.6 mm and 5 micron particles. The mobile phase consisted of 400 ml deionized water+600 ml acetonitrile+0.196 g H3PO4 (85%)+2.760 g NaH2PO4*H2O. The flow rate was set to 1.0 mL/min and UV detection at 254 nm was employed for analysis of the compounds ethylbenzoylacetate (precursor), benzoylacetate (model prodrug) and acetophenone (model drug).
Ethyl benzoyl acetate was saponified according to the description in Example 1, and after 7 hours a solution containing about 0.2 M of the sodium salt of benzoyl acetate was obtained.

Compound: 5-(6-methoxy-2-naphthyl)-beta-keto-pentanoate [Nabumetone beta-keto salt prodrug]
- half-life of the prodrug (estimated) [1]: about 70 hours
- period over which Nabumetone was continuously released into the solution [1]: more than 120 hours
- Nabumetone beta-keto salt prodrug (HPLC area @ retention time 2.3 min) ([1]; 3.25 h after initiation of saponification): 28341
- Nabumetone beta-keto salt prodrug (HPLC area @ retention time 2.3 min) ([1]; 5.1 h after initiation of saponification): 27144
- Nabumetone beta-keto salt prodrug (HPLC area @ retention time 2.3 min) ([1]; 21.45 h after initiation of saponification): 22542
- Nabumetone beta-keto salt prodrug (HPLC area @ retention time 2.3 min) ([1]; 24.25 h after initiation of saponification): 24102 and 21914
- Nabumetone beta-keto salt prodrug (HPLC area @ retention time 2.3 min) ([1]; 28.15 h after initiation of saponification): 19536
- Nabumetone beta-keto salt prodrug (HPLC area @ retention time 2.3 min) ([1]; 45.4 h after initiation of saponification): 18202
- Nabumetone beta-keto salt prodrug (HPLC area @ retention time 2.3 min) ([1]; 50 h after initiation of saponification): 18123
- Nabumetone beta-keto salt prodrug (HPLC area @ retention time 2.3 min) ([1]; 78 h after initiation of saponification): 9528
- Nabumetone beta-keto salt prodrug (HPLC area @ retention time 2.3 min) ([1]; 117 h after initiation of saponification): 9760
- Nabumetone beta-keto salt prodrug (HPLC area @ retention time 2.3 min) ([1]; 194 h after initiation of saponification): 1827
- Solubility (mg/L, as Nabumetone equivalents) ([2]; clear aqueous solution (0.5 M NaOH) at room temperature, 0.2 μm filtered, before heat-treatment): 136.7 mg/L
- Area at retention time 2.3 minutes characteristic for detection of the beta-keto anion ([2]; clear liquid after 3.5 h at 37° C. in 0.5 M NaOH, 200 μL diluted with 5.0 ml mobile phase): 36218 arbitrary units

Compound: C[C@]12CC[C@H]3[C@@H](CCC4=CC(=O)CC[C@@]43C)[C@@H]1CC[C@@H]2O [testosterone, (8R,9S,10R,13S,14S,17S)-17-hydroxy-10,13-dimethyl-1,2,6,7,8,9,11,12,14,15,16,17-dodecahydrocyclopenta[a]phenanthren-3-one]
- Solubility ([3]; at 37° C., Okimotoa et al., 1999): 39 µg/mL

Compound: CC(=O)c1ccccc1 [acetophenone]
- Solubility ([3]; tabulated solubility): 46 mM
- Acetophenone concentration ([4]; 0.25 h): 0.09 mM
- Acetophenone concentration ([4]; 1.33 h): 0.32 mM
- Acetophenone concentration ([4]; 2.58 h): 0.50 mM
- Acetophenone concentration ([4]; 4.75 h): 0.866 mM
- Acetophenone concentration ([4]; 5.58 h): 0.866 mM
- Acetophenone concentration ([4]; 6.58 h): 0.921 mM
- Acetophenone concentration ([4]; 22.58 h): 1.34 mM
- Acetophenone concentration ([4]; -0.17 h): 0.07 mM
- Concentration of acetophenone (model drug) in sample ([5]; Time @ 37° C. 0.42): 160 µM
- Concentration of acetophenone (model drug) in sample ([5]; Time @ 37° C. 2.25): 290 µM
- Concentration of acetophenone (model drug) in sample ([5]; Time @ 37° C. 3.17): 380 µM
- Concentration of acetophenone (model drug) in sample ([5]; Time @ 37° C. 4.17): 480 µM
- Concentration of acetophenone (model drug) in sample ([5]; Time @ 37° C. 6.17): 400 µM
- Concentration of acetophenone (model drug) in sample ([5]; Time @ 37° C. 8.25): 630 µM
- Concentration of acetophenone (model drug) in sample ([5]; Time @ 37° C. 10.17): 730 µM
- Concentration of acetophenone (model drug) in sample ([5]; Time @ 37° C. 12.17): 730 µM
- Concentration of acetophenone (model drug) in sample ([5]; Time @ 37° C. 13.92): 900 µM
- Concentration of acetophenone (model drug) in sample ([5]; Time @ 37° C. 17.92): 920 µM
- Concentration of acetophenone (model drug) in sample ([5]; Time @ 37° C. 21.17): 1080 µM
- Concentration of acetophenone (model drug) in sample ([5]; Time @ 37° C. 24.92): 950 µM
- Concentration of acetophenone (model drug) in sample ([5]; Time @ 37° C. 31.33): 1110 µM
- Concentration of acetophenone (model drug) in sample ([5]; Time @ 37° C. 48.75): 1550 µM
- Concentration of acetophenone (model drug) in sample ([5]; Time @ 37° C. 76.33): 1890 µM
